According to patent US7491794B2, “Macrocyclic compounds as inhibitors of viral replication” (Intermune, Inc., priority 2003, dated 2009):
Where two headings read alike, the source gives them in different places.

Legend:
NS3-NS4A protease = molecular target: T1, NS3-NS4A protease (Hepatitis C virus genotype 1a, UniProt P27958); assay: NS3-NS4A protease assay (NS3 inhibition assay, RETS1 substrate), Section B; format: biochemical
T1 construct: Recombinant E. coli or Baculovirus full-length NS3 was diluted to 3.33 μM with assay buffer; made in house; host or cells: E. coli or baculovirus (BV) system
Outline: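 Kinetic fluorescence read (335 nm excitation, 495 nm emission, 30 min) of RETS1 cleavage by NS3/NS4A-2 complex, 2 nM E. coli or 3 nM baculovirus NS3, after 10 min room-temperature compound pre-incubation. Four-parameter-fit IC50s converted to Ki by Cheng–Prusoff, Ki=IC50/(1+[S]/Km).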

[1] = system: HCV sub-genomic replicon, GS4.3; assay: Quantitation by ELISA of NPTII in the HCV sub-genomic replicon, GS4.3, Section B; format: cell-based; conditions: Hepatitis C virus, read-out: Replicon EC50
Outline: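 NPTII marker protein in lysates was quantified by ELISA read at 450 nm after 72 h inhibitor exposure (3-fold series, final DMSO 1%, G418-free medium) of HuH-7 cells stably harbouring the subgenomic HCV replicon. Values relative to DMSO-treated controls; 4-parameter curves gave EC50.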

T1 sequence (P27958 1027-1657): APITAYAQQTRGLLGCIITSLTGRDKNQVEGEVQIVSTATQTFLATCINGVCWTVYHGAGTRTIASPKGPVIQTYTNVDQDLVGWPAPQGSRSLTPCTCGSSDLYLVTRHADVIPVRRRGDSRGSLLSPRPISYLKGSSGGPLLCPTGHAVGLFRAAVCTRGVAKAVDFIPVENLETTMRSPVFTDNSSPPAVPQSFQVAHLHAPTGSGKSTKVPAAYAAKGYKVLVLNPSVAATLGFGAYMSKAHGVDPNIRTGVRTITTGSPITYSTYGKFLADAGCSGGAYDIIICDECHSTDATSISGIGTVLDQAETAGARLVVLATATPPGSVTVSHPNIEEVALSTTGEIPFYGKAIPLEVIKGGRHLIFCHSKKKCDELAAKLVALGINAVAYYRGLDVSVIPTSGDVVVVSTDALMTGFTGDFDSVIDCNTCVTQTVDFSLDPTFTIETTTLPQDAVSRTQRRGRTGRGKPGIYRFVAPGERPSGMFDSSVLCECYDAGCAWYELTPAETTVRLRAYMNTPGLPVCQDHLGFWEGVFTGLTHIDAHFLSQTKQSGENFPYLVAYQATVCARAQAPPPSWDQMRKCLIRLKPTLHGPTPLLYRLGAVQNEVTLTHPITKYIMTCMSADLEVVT

Row | SMILES | IC50 (NS3-NS4A protease; read-out: NS3-NS4A IC50) [nM] | EC50 ([1]; GS4.3 cells, 72 h incubation) [nM] | IC50 (NS3-NS4A protease) [nM] | EC50 ([1]; 72 h) [nM]
1 | CC(C)(C)OC(=O)N[C@H]1CCCCC/C=C\[C@@H]2C[C@@]2(C(=O)NS(=O)(=O)c2ccc(Cl)s2)NC(=O)[C@@H]2C[C@@H](OC(=O)N3Cc4ccc(Cl)cc4C3)CN2C1=O [AR00340173, (1S,4R,6S,14S,18R)-5-Chloro-1,3-dihydro-isoindole-2-carboxylic acid 14-tert-butoxycarbonylamino-4-(5-chloro-thiophene-2-sulfonylaminocarbonyl)-2,15-dioxo-3,16-diaza-tricyclo[14.3.0.0^4,6]nonadec-7-en-18-yl ester] | < 100 | < 10000 |  | 
2 | CC(C)(C)OC(=O)N[C@H]1CCCCC/C=C\[C@@H]2C[C@@]2(C(=O)O)NC(=O)[C@@H]2C[C@@H](OC(=O)N3Cc4cc(Cl)c(Cl)cc4C3)CN2C1=O [AR00315999, (1S,4R,6S,14S,18R)-14-tert-Butoxycarbonylamino-18-(5,6-dichloro-1,3-dihydro-isoindole-2-carbonyloxy)-2,15-dioxo-3,16-diaza-tricyclo[14.3.0.0^4,6]nonadec-7-ene-4-carboxylic acid] | < 1000 | < 10000 |  | 
3 | O=C(NC1CCCC1)N[C@H]1CCCCC/C=C\[C@@H]2C[C@@]2(C(=O)O)NC(=O)[C@@H]2C[C@@H](OC(=O)N3CCc4cccc(C(F)(F)F)c4C3)CN2C1=O [AR00304078, (1S,4R,6S,14S,18R)-14-(3-Cyclopentyl-ureido)-2,15-dioxo-18-(8-trifluoromethyl-3,4-dihydro-1H-isoquinoline-2-carbonyloxy)-3,16-diaza-tricyclo[14.3.0.0^4,6]nonadec-7-ene-4-carboxylic acid] | < 100 | < 1000 |  | 
4 | CC(C)(C)OC(=O)N[C@H]1CCCCCC=C[C@@H]2C[C@@]2(C(=O)O)NC(=O)[C@@H]2C[C@@H](OC(=O)N3Cc4ccccc4C(C)(C)C3)CN2C1=O [AR00304066, (1S,4R,6S,14S,18R)-14-tert-Butoxycarbonylamino-18-(4,4-dimethyl-3,4-dihydro-1H-isoquinoline-2-carbonyloxy)-2,15-dioxo-3,16-diaza-tricyclo[14.3.0.0^4,6]nonadec-7-ene-4-carboxylic acid] | < 1000 | < 10000 |  | 
5 | CC(C)(C)NC(=O)N[C@H]1CCCCC/C=C\[C@@H]2C[C@@]2(C(=O)O)NC(=O)[C@@H]2C[C@@H](OC(=O)N3CCc4ccccc4C3)CN2C1=O [AR00294377, (1S,4R,6S,14S,18R)-14-(3-tert-Butyl-ureido)-18-(3,4-dihydro-1H-isoquinoline-2-carbonyloxy)-2,15-dioxo-3,16-diaza-tricyclo[14.3.0.0^4,6]nonadec-7-ene-4-carboxylic acid] | < 1000 | < 10000 |  | 
6 | CC(C)(C)NC(=O)N[C@H]1CCCCC/C=C\[C@@H]2C[C@@]2(C(=O)O)NC(=O)[C@@H]2C[C@@H](OC(=O)N3Cc4ccccc4C3)CN2C1=O [AR00320078, (1S,4R,6S,14S,18R)-14-(3-tert-Butyl-ureido)-18-(1,3-dihydro-isoindole-2-carbonyloxy)-2,15-dioxo-3,16-diaza-tricyclo[14.3.0.0^4,6]nonadec-7-ene-4-carboxylic acid] | < 100 | < 10000 |  | 
7 | CC(C)[C@@H](NC(=O)c1ccc(N(C)C)nc1)C(=O)N[C@H]1CCCCC/C=C\[C@@H]2C[C@@]2(C(=O)O)NC(=O)[C@@H]2C[C@@H](OC(=O)N3CCc4ccccc4C3)CN2C1=O [AR00304072, (1S,4R,6S,14S,18R)-18-(3,4-Dihydro-1H-isoquinoline-2-carbonyloxy)-14-{2-[(6-dimethylamino-pyridine-3-carbonyl)-amino]-3-methyl-butyrylamino}-2,15-dioxo-3,16-diaza-tricyclo[14.3.0.0^4,6]nonadec-7-ene-4-carboxylic acid] |  |  | < 1000 | < 10000
8 | O=C(N[C@H]1CCCCC/C=C\[C@@H]2C[C@@]2(C(=O)NS(=O)(=O)C2CC2)NC(=O)[C@@H]2C[C@@H](OC(=O)N3Cc4ccccc4C3)CN2C1=O)OCCF [AR00320073, (1S,4R,6S,14S,18R)-1,3-Dihydro-isoindole-2-carboxylic acid 4-cyclopropanesulfonylaminocarbonyl-14-(2-fluoro-ethoxycarbonylamino)-2,15-dioxo-3,16-diaza-tricyclo[14.3.0.0^4,6]nonadec-7-en-18-yl ester] | < 100 | < 100 |  | 
9 | CC(C)(C)OC(=O)N[C@H]1CCCCC/C=C\[C@@H]2C[C@@]2(C(=O)NS(=O)(=O)C2CC2)NC(=O)[C@@H]2C[C@@H](OC(=O)N3Cc4ccc(OCCn5cccn5)cc4C3)CN2C1=O [AR00364924, (1S,4R,6S,14S,18R)-5-(2-Pyrazol-1-yl-ethoxy)-1,3-dihydro-isoindole-2-carboxylic acid 14-tert-butoxycarbonylamino-4-cyclopropanesulfonylaminocarbonyl-2,15-dioxo-3,16-diaza-tricyclo[14.3.0.0^4,6]nonadec-7-en-18-yl ester] | < 100 | < 100 |  | 
10 | O=C(N[C@H]1CCCCC/C=C\[C@@H]2C[C@@]2(C(=O)NS(=O)(=O)C2CC2)NC(=O)[C@@H]2C[C@@H](OC(=O)N3Cc4ccc(Cl)cc4C3)CN2C1=O)OC1CCCC1 [AR00334218, (1S,4R,6S,14S,18R)-5-Chloro-1,3-dihydro-isoindole-2-carboxylic acid 14-cyclopentyloxycarbonylamino-4-cyclopropanesulfonylaminocarbonyl-2,15-dioxo-3,16-diaza-tricyclo[14.3.0.0^4,6]nonadec-7-en-18-yl ester] | < 100 | < 100 |  | 
11 | CC(C)(C)Nc1nc2c(s1)CN(C(=O)O[C@@H]1C[C@H]3C(=O)N[C@]4(C(=O)O)C[C@H]4/C=C\CCCCC[C@H](NC(=O)OC(C)(C)C)C(=O)N3C1)CC2 [AR00304103, (1S,4R,6S,14S,18R)-14-tert-Butoxycarbonylamino-18-(2-tert-butylamino-6,7-dihydro-4H-thiazolo[5,4-c]pyridine-5-carbonyloxy)-2,15-dioxo-3,16-diaza-tricyclo[14.3.0.0^4,6]nonadec-7-ene-4-carboxylic acid] | < 10000 | < 10000 |  | 
12 | O=C(NC1CCCC1)N[C@H]1CCCCC/C=C\[C@@H]2C[C@@]2(C(=O)NS(=O)(=O)C2CC2)NC(=O)[C@@H]2C[C@@H](OC(=O)N3CCc4cccc(C(F)(F)F)c4C3)CN2C1=O [AR00304081, (1S,4R,6S,14S,18R)-8-Trifluoromethyl-3,4-dihydro-1H-isoquinoline-2-carboxylic acid 14-(3-cyclopentyl-ureido)-4-cyclopropanesulfonylaminocarbonyl-2,15-dioxo-3,16-diaza-tricyclo[14.3.0.0^4,6]nonadec-7-en-18-yl ester] | < 100 | < 1000 |  | 
13 | CC(C)(C)OC(=O)N[C@H]1CCCCC/C=C\[C@@H]2C[C@@]2(C(=O)NS(=O)(=O)C2CC2)NC(=O)[C@@H]2C[C@@H](OC(=O)N3Cc4ccc(C#N)cc4C3)CN2C1=O [AR00365082, (1S,4R,6S,14S,18R)-5-Cyano-1,3-dihydro-isoindole-2-carboxylic acid 14-tert-butoxycarbonylamino-4-cyclopropanesulfonylaminocarbonyl-2,15-dioxo-3,16-diaza-tricyclo[14.3.0.0^4,6]nonadec-7-en-18-yl ester] | < 100 | < 1000 |  | 
14 | Cc1nc(-c2ccc3c(c2)CN(C(=O)O[C@@H]2C[C@H]4C(=O)N[C@]5(C(=O)NS(=O)(=O)C6CC6)C[C@H]5/C=C\CCCCC[C@H](NC(=O)OC(C)(C)C)C(=O)N4C2)C3)cs1 [AR00364989, (1S,4R,6S,14S,18R)-5-(2-Methyl-thiazol-4-yl)-1,3-dihydro-isoindole-2-carboxylic acid 14-tert-butoxycarbonylamino-4-cyclopropanesulfonylaminocarbonyl-2,15-dioxo-3,16-diaza-tricyclo[14.3.0.0^4,6]nonadec-7-en-18-yl ester] | < 100 | < 100 |  | 
15 | CC(C)(C)OC(=O)N[C@H]1CCCCC/C=C\[C@@H]2C[C@@]2(C(=O)NS(=O)(=O)C2CC2)NC(=O)[C@@H]2C[C@@H](OC(=O)N3Cc4ccc(N5CCOCC5)cc4C3)CN2C1=O [AR00340494, (1S,4R,6S,14S,18R)-5-Morpholin-4-yl-1,3-dihydro-isoindole-2-carboxylic acid 14-tert-butoxycarbonylamino-4-cyclopropanesulfonylaminocarbonyl-2,15-dioxo-3,16-diaza-tricyclo[14.3.0.0^4,6]nonadec-7-en-18-yl ester] | < 100 | < 100 |  | 
16 | CC(OC(=O)N[C@H]1CCCCC/C=C\[C@@H]2C[C@@]2(C(=O)NS(=O)(=O)C2CC2)NC(=O)[C@@H]2C[C@@H](OC(=O)N3CCc4ccccc4C3)CN2C1=O)C(F)(F)F (stereo partly drawn) [AR00320581, (1S,4R,6S,14S,18R)-3,4-Dihydro-1H-isoquinoline-2-carboxylic acid 4-cyclopropanesulfonylaminocarbonyl-2,15-dioxo-14-(2,2,2-trifluoro-1-methyl-ethoxycarbonylamino)-3,16-diaza-tricyclo[14.3.0.0^4,6]nonadec-7-en-18-yl ester] | < 100 | < 100 |  | 
17 | O=C(NC1CCCC1)N[C@H]1CCCCC/C=C\[C@@H]2C[C@@]2(C(=O)NS(=O)(=O)C2CC2)NC(=O)[C@@H]2C[C@@H](NC(=O)N3Cc4ccccc4C3)CN2C1=O [AR00304014, (1S,4R,6S,14S,18R)-1,3-Dihydro-isoindole-2-carboxylic acid [14-(3-cyclopentyl-ureido)-4-cyclopropanesulfonylaminocarbonyl-2,15-dioxo-3,16-diaza-tricyclo[14.3.0.0^4,6]nonadec-7-en-18-yl]-amide] | < 100 | < 100 |  | 
